Laboratory results: patent US9517934B2, “Process for the generation of chlorine dioxide” (The United States of America as Represented by the …, priority 2013, dated 2016)

Columns and labels:
[1] = diprotic, cited from earlier work
[2] = test system: Bacillus anthracis Sterne spores; assay type: cell-based; settings: cotton/nylon fabric, 200, 80, or 40 ppm chlorine dioxide, 10 minutes
[3] = test system: Bacillus amyloliquefaciens spores; assay type: cell-based

SMILES	pKa1 ([1]; first dissociation)	pKa2 ([1]; second dissociation)	log reduction of B. anthracis Sterne spores [2]	presence of B. amyloliquefaciens spores after treatment [3]
N=C(N)S(=O)O [FSA, Formamidinesulfinic acid]	≤ 2	~9	–	–
[O][Cl+][O-] [chlorine dioxide]	–	–	7.50 log reduction	significantly reduced but did not completely eliminate
